In patent US8192962B2, “Processes for detecting toxic substances” (Daikin Industries, Ltd., priority 2001, dated 2012):

Test system: Transport facilitation protein genes
Experiment: DNA chip mRNA expression in yeast, transport facilitation protein genes (Table 5)
Type: cell-based, Saccharomyces cerevisiae S288C
How it was run: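 In this screen, yeast in logarithmic growth are challenged for two hours with a toxic substance at a non-lethal inhibitory concentration. Their mRNA, converted to Cy3- or Cy5-labeled cDNA, hybridizes at 65° C. to a chip spanning every yeast gene, and expression is expressed as a ratio to untreated cells.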

**Q.** How did the “The level of expressed mRNA in the presence of chemical substance/The level of expressed mRNA in the absence of chemical substance” value (yeast gene YBL030C) turn out when `C=CC=O` [(14), acrolein] was run?
**A.** 0.8

**Q.** And the “The level of expressed mRNA in the presence of chemical substance/The level of expressed mRNA in the absence of chemical substance” value (yeast gene YBL099W)?
**A.** 0.6

**Q.** And the “The level of expressed mRNA in the presence of chemical substance/The level of expressed mRNA in the absence of chemical substance” value (yeast gene YBR052C)?
**A.** 1.5

**Q.** What about the “The level of expressed mRNA in the presence of chemical substance/The level of expressed mRNA in the absence of chemical substance” value (yeast gene YBR068C) of the same compound?
**A.** 1.8

**Q.** And the “The level of expressed mRNA in the presence of chemical substance/The level of expressed mRNA in the absence of chemical substance” value (yeast gene YBR127C)?
**A.** 0.6

**Q.** What about the “The level of expressed mRNA in the presence of chemical substance/The level of expressed mRNA in the absence of chemical substance” value (yeast gene YBR132C) of the same compound?
**A.** 1.1

**Q.** What about the “The level of expressed mRNA in the presence of chemical substance/The level of expressed mRNA in the absence of chemical substance” value (yeast gene YBR207W) of the same compound?
**A.** 0.9

**Q.** What about the “The level of expressed mRNA in the presence of chemical substance/The level of expressed mRNA in the absence of chemical substance” value (yeast gene YBR293W) of the same compound?
**A.** 1.4

**Q.** And the “The level of expressed mRNA in the presence of chemical substance/The level of expressed mRNA in the absence of chemical substance” value (yeast gene YBR294W)?
**A.** 1.3

**Q.** And the “The level of expressed mRNA in the presence of chemical substance/The level of expressed mRNA in the absence of chemical substance” value (yeast gene YBR295W)?
**A.** 1.1

**Q.** What about the “The level of expressed mRNA in the presence of chemical substance/The level of expressed mRNA in the absence of chemical substance” value (yeast gene YBR298C) of the same compound?
**A.** 0.9

**Q.** And the “The level of expressed mRNA in the presence of chemical substance/The level of expressed mRNA in the absence of chemical substance” value (yeast gene YCL025C)?
**A.** 0.7

**Q.** And the “The level of expressed mRNA in the presence of chemical substance/The level of expressed mRNA in the absence of chemical substance” value (yeast gene YCL038C)?
**A.** 1.3

**Q.** What about the “The level of expressed mRNA in the presence of chemical substance/The level of expressed mRNA in the absence of chemical substance” value (yeast gene YCR024C-A) of the same compound?
**A.** 0.8

**Q.** What about the “The level of expressed mRNA in the presence of chemical substance/The level of expressed mRNA in the absence of chemical substance” value (yeast gene YCR037C) of the same compound?
**A.** 0.8

**Q.** And the “The level of expressed mRNA in the presence of chemical substance/The level of expressed mRNA in the absence of chemical substance” value (yeast gene YCR098C)?
**A.** 1.1

**Q.** And the “The level of expressed mRNA in the presence of chemical substance/The level of expressed mRNA in the absence of chemical substance” value (yeast gene YDL128W)?
**A.** 0.7

**Q.** And the “The level of expressed mRNA in the presence of chemical substance/The level of expressed mRNA in the absence of chemical substance” value (yeast gene YDL198C)?
**A.** 1.7

**Q.** What about the “The level of expressed mRNA in the presence of chemical substance/The level of expressed mRNA in the absence of chemical substance” value (yeast gene YDL210W) of the same compound?
**A.** 1.1

**Q.** And the “The level of expressed mRNA in the presence of chemical substance/The level of expressed mRNA in the absence of chemical substance” value (yeast gene YDL245C)?
**A.** 1.2

**Q.** What about the “The level of expressed mRNA in the presence of chemical substance/The level of expressed mRNA in the absence of chemical substance” value (yeast gene YDR038C) of the same compound?
**A.** 0.8

**Q.** And the “The level of expressed mRNA in the presence of chemical substance/The level of expressed mRNA in the absence of chemical substance” value (yeast gene YDR039C)?
**A.** 0.9

**Q.** And the “The level of expressed mRNA in the presence of chemical substance/The level of expressed mRNA in the absence of chemical substance” value (yeast gene YDR086C)?
**A.** 1.5

**Q.** What about the “The level of expressed mRNA in the presence of chemical substance/The level of expressed mRNA in the absence of chemical substance” value (yeast gene YDR270W) of the same compound?
**A.** 1.0

**Q.** And the “The level of expressed mRNA in the presence of chemical substance/The level of expressed mRNA in the absence of chemical substance” value (yeast gene YDR298C)?
**A.** 1.5

**Q.** What about the “The level of expressed mRNA in the presence of chemical substance/The level of expressed mRNA in the absence of chemical substance” value (yeast gene YDR342C) of the same compound?
**A.** 0.9

**Q.** What about the “The level of expressed mRNA in the presence of chemical substance/The level of expressed mRNA in the absence of chemical substance” value (yeast gene YDR343C) of the same compound?
**A.** 0.8

**Q.** And the “The level of expressed mRNA in the presence of chemical substance/The level of expressed mRNA in the absence of chemical substance” value (yeast gene YDR345C)?
**A.** 0.8

**Q.** And the “The level of expressed mRNA in the presence of chemical substance/The level of expressed mRNA in the absence of chemical substance” value (yeast gene YDR387C)?
**A.** 0.9

**Q.** And the “The level of expressed mRNA in the presence of chemical substance/The level of expressed mRNA in the absence of chemical substance” value (yeast gene YDR497C)?
**A.** 0.6

**Q.** And the “The level of expressed mRNA in the presence of chemical substance/The level of expressed mRNA in the absence of chemical substance” value (yeast gene YEL027W)?
**A.** 1.4

**Q.** What about the “The level of expressed mRNA in the presence of chemical substance/The level of expressed mRNA in the absence of chemical substance” value (yeast gene YEL063C) of the same compound?
**A.** 0.8

**Q.** What about the “The level of expressed mRNA in the presence of chemical substance/The level of expressed mRNA in the absence of chemical substance” value (yeast gene YEL065W) of the same compound?
**A.** 0.4

**Q.** What about the “The level of expressed mRNA in the presence of chemical substance/The level of expressed mRNA in the absence of chemical substance” value (yeast gene YER053C) of the same compound?
**A.** 1.3

**Q.** What about the “The level of expressed mRNA in the presence of chemical substance/The level of expressed mRNA in the absence of chemical substance” value (yeast gene YFL011W) of the same compound?
**A.** 0.8

**Q.** And the “The level of expressed mRNA in the presence of chemical substance/The level of expressed mRNA in the absence of chemical substance” value (yeast gene YFL041W)?
**A.** 1.0

**Q.** What about the “The level of expressed mRNA in the presence of chemical substance/The level of expressed mRNA in the absence of chemical substance” value (yeast gene YFL050C) of the same compound?
**A.** 1.0

**Q.** What about the “The level of expressed mRNA in the presence of chemical substance/The level of expressed mRNA in the absence of chemical substance” value (yeast gene YFL054C) of the same compound?
**A.** 0.9

**Q.** And the “The level of expressed mRNA in the presence of chemical substance/The level of expressed mRNA in the absence of chemical substance” value (yeast gene YGL006W)?
**A.** 0.9

**Q.** What about the “The level of expressed mRNA in the presence of chemical substance/The level of expressed mRNA in the absence of chemical substance” value (yeast gene YGL008C) of the same compound?
**A.** 1.2

**Q.** And the “The level of expressed mRNA in the presence of chemical substance/The level of expressed mRNA in the absence of chemical substance” value (yeast gene YGL104C)?
**A.** 1.0

**Q.** What about the “The level of expressed mRNA in the presence of chemical substance/The level of expressed mRNA in the absence of chemical substance” value (yeast gene YGL167C) of the same compound?
**A.** 0.8

**Q.** What about the “The level of expressed mRNA in the presence of chemical substance/The level of expressed mRNA in the absence of chemical substance” value (yeast gene YGL255W) of the same compound?
**A.** 1.0

**Q.** And the “The level of expressed mRNA in the presence of chemical substance/The level of expressed mRNA in the absence of chemical substance” value (yeast gene YGR055W)?
**A.** 1.2

**Q.** And the “The level of expressed mRNA in the presence of chemical substance/The level of expressed mRNA in the absence of chemical substance” value (yeast gene YGR065C)?
**A.** 1.3

**Q.** What about the “The level of expressed mRNA in the presence of chemical substance/The level of expressed mRNA in the absence of chemical substance” value (yeast gene YGR082W) of the same compound?
**A.** 0.9

**Q.** And the “The level of expressed mRNA in the presence of chemical substance/The level of expressed mRNA in the absence of chemical substance” value (yeast gene YGR096W)?
**A.** 1.2

**Q.** What about the “The level of expressed mRNA in the presence of chemical substance/The level of expressed mRNA in the absence of chemical substance” value (yeast gene YGR138C) of the same compound?
**A.** 0.9

**Q.** And the “The level of expressed mRNA in the presence of chemical substance/The level of expressed mRNA in the absence of chemical substance” value (yeast gene YGR191W)?
**A.** 0.7

**Q.** What about the “The level of expressed mRNA in the presence of chemical substance/The level of expressed mRNA in the absence of chemical substance” value (yeast gene YGR197C) of the same compound?
**A.** 1.5

**Q.** And the “The level of expressed mRNA in the presence of chemical substance/The level of expressed mRNA in the absence of chemical substance” value (yeast gene YGR224W)?
**A.** 0.9

**Q.** What about the “The level of expressed mRNA in the presence of chemical substance/The level of expressed mRNA in the absence of chemical substance” value (yeast gene YGR260W) of the same compound?
**A.** 0.7

**Q.** What about the “The level of expressed mRNA in the presence of chemical substance/The level of expressed mRNA in the absence of chemical substance” value (yeast gene YGR281W) of the same compound?
**A.** 0.9
